Experimental data reported in publication PMC2962730 (Journal of neurochemistry, 2010).
Where a chain is given by its changes, count along the chain named.

Key:
[1] = target: T1, hVAChT A334F (Homo sapiens, UniProt Q16572, A334F); test: [3H]ACh transport; format: biochemical
T1 sequence (Q16572 1-532 A334F): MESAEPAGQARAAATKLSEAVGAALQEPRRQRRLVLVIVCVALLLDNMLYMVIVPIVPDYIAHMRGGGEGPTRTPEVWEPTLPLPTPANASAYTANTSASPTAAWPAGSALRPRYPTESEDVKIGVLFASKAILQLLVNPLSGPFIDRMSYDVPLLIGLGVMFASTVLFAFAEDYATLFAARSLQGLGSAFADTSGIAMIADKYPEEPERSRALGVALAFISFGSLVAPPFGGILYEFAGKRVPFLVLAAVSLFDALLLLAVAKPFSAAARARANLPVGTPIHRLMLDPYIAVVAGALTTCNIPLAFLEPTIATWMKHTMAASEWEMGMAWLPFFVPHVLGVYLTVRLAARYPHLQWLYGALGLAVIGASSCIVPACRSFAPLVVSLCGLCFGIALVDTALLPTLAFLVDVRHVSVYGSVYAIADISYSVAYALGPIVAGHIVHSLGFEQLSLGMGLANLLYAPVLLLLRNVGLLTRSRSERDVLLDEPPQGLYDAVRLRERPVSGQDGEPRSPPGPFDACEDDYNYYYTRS

[2] = target: T2, hVAChT C391A (Homo sapiens, UniProt Q16572, C391A); test: ACh equilibrium binding by competition against [3H]vesamicol
T2 sequence (Q16572 1-532 C391A): T1 sequence (Q16572 1-532 A334F) with F334A, C391A

[3] = target: T3, hVAChT K317A (Homo sapiens, UniProt Q16572, K317A); test: [3H]ACh transport; format: biochemical
T3 sequence (Q16572 1-532 K317A): T1 sequence (Q16572 1-532 A334F) with K317A, F334A

[4] = target: T4, hVAChT W331L (Homo sapiens, UniProt Q16572, W331L); test: [3H]ACh transport; format: biochemical
T4 sequence (Q16572 1-532 W331L): T1 sequence (Q16572 1-532 A334F) with W331L, F334A

[5] = target: T1, hVAChT A334F; test: [3H]vesamicol saturation binding; details: pH 7.4
[6] = target: T4, hVAChT W331L; test: [3H]vesamicol saturation binding; details: pH 7.4
[7] = target: T5, hVAChT M320A (Homo sapiens, UniProt Q16572, M320A); test: [3H]vesamicol saturation binding; details: pH 7.4
T5 sequence (Q16572 1-532 M320A): T1 sequence (Q16572 1-532 A334F) with M320A, F334A

[8] = read-out: KM, Michaelis-Menten constant for ACh transport, pH 7.4

Compound	ACh transport rate relative to wild-type (as fast as) ([1]; A334F hVAChT vs wild-type)	Vmax/Bmax, ACh transport normalized to Bmax ([1]; A334F hVAChT, pH 7.4)	Km ([1]; read-out: KM, Michaelis-Menten constant for ACh transport, A334F hVAChT, pH 7.4)	Kd [2]	FHA, fraction of the ACh sites that have high affinity ([2]; C391A hVAChT, pH 7.4)	Vmax/Bmax, ACh transport normalized to Bmax ([3]; pH 7.4)	Km [3, 8]	Vmax/Bmax, ACh transport normalized to Bmax ([4]; pH 7.4)	Km [4, 8]	Bmax, maximal specific [3H]vesamicol binding (VAChT expression level) [5]	Bmax, maximal specific [3H]vesamicol binding (VAChT expression level) [6]	Bmax, maximal specific [3H]vesamicol binding (VAChT expression level) [7]
CC(=O)OCC[N+](C)(C)C [ACh, acetylcholine]	about one-half	3.6 ± 0.8 min⁻¹	3 ± 1.3 mM	10 ± 3 mM	0.71 ± 0.07	17.8 ± 3.9 min⁻¹	3.2 ± 1.2 mM	6.2 ± 1.2 min⁻¹	4.6 ± 1.5 mM	–	–	–
O[C@@H]1CCCC[C@H]1N1CCC(c2ccccc2)CC1 (racemic) [vesamicol, ( )-trans-2-(4-phenylpiperidino)cyclohexanol]	–	–	–	–	–	–	–	–	–	13 ± 1 pmol/mg	14 ± 1 pmol/mg	62 ± 5 pmol/mg
